Results: patent publication US10736326B2, “Nematode dispersant composition and method” (PHERONYM, INC., priority 2016, dated 2020)
“Also recorded” adds a separate entry of the source.

Test system: S. feltiae infective juveniles (IJ)
Assay: Dispersal assay with S. feltiae infective juveniles on agar plates
Format: in vivo, Steinernema feltiae
Conditions: S. feltiae IJs; for dispersal activity in combination with fractions B and C: ascr#11 1.3 pmol/μl, FIG. 1C, 1D; for dispersal activity by itself: physiologically relevant concentration (ascr#9 40.3 pmol/μl, ascr#11 1.3 pmol/μl), FIG. 1B
Experimental: The dispersal assay for the activity guided purification in FIG. 1 used S. feltiae IJs that were washed with MILLI-Q water three times and incubated in 6 cm petri dishes for 36 h with a small amount (4-5 ml) of MILLI-Q water. The following day, nematodes were placed on a 10.7 g/L agar with gel strength 1010 g/cm^2 (PhytoTechnology Lab. Shawnee Mission, Kans.). Nematode behavior was assayed on multiple plates with internal plate replicates to rule out the possibility that behavior was affected by plate composition. Approximately 300 IJs in 10 μl water were placed on an agar medium and the test compounds or extracts were placed into 1-2 μl to the nematode suspension. Upon absorption (15-20 min) of the liquid, the freely moving nematodes were video-recorded for 5-10 min. Dispersal behavior is temperature and season dependent. During winter, the assay is effective at RT (22±1° C.). During summer, the assay requires a temperature-controlled environment due to effects on nematode behavior above 23° C.
Activity guided fractionation was conducted as described by Srinivasan et al 2008 with modifications. A total of 33 insect host cadavers (G. mellonella larvae) were placed into 70% EtOH and stored at −20° C. until extraction. The insect cadavers were homogenized using 1 g of ceramic zirconium beads (1.25 mm) (ZIRMIL) in 2 ml tubes for 37 sec using a Precellys24 (http://www.precellys.com) homogenizer. Samples were centrifuged for 15 min at 18400 rcf and the supernatant was lyophilized and resuspended in MILLI-Q water. The dispersal activity of nematodes was tested using the dispersal assay described herein above and a physiologically relevant concentration of insect host cadaver extract or fractionated extract. To facilitate calculations for physiologically relevant concentration of the ascarosides, wax worm volume was estimated at 200 μl; the average weight of wax worms was 232 (+/−57 mg; n=19).
The first reverse-phase solid-phase extraction was performed using Sep-Pak Plus C18 cartridges (Waters corporation, Milford, Mass.). The initially collected flow through was termed Fraction A. Thereafter, the column was washed with water, collected and saved. Subsequently, the column was eluted with 50% (Fraction B) and 90% MeOH (Fraction C). The fractions were tested for dispersal activity both individually and in combination. Also individual fractions were analyzed by LC-MS. Fraction A contained ascr#9, which was collected by LC-MS and tested for activity with Fraction B+C.
A total of 33 insect host cadavers ([…] larvae) were placed into 70% EtOH and were homogenized using 1 g of ceramic zirconium beads (1.25 mm) (ZIRMIL) in 2 ml tubes for 37 sec using a Precellys24 (http://www.precellys.com) homogenizer. Samples were centrifuged for 15 min at 18400 rcf and the supernatant was lyophilized and resuspended in MILLI-Q water. The dispersal activity of nematodes was tested using the dispersal assay described herein above. The extracts were resuspended in water as 10 times concentrated. The average weight of insect host is estimated 200 microL and therefore the dry cadavers extract from 1 insect equivalent was diluted in 20 microL of water. One microL of the concentrated extracts was added to the 10 ul of IJ water suspension.

Row | SMILES | dispersal activity in combination with fractions B and C | dispersal activity by itself | dispersal activity in combination with fractions B and C (listed as natural ascr#9) | dispersal activity in combination with fractions B and C (listed as synthetic ascr#9)
1 | C[C@H](CC(=O)O)O[C@@H]1O[C@@H](C)[C@H](O)C[C@H]1O [ascr#11] | sufficient to cause dispersal; also recorded: active with the other two fractions | not active by themselves |  | 
2 | C[C@H](CCC(=O)O)O[C@@H]1O[C@@H](C)[C@H](O)C[C@H]1O [ascr#9] |  | not active by themselves | active | confirms the active component
